Laboratory results taken from patent publication US20130004959A1, “SCREENING DEVICE CONTAINING NANOG PROMOTER, SOX2 PROMOTER, LIN 28 PROMOTER, OCT4 PROMOTER AND LUCIFERASE GENE AND SCREENING METHOD THEREOF” (NATIONAL CENTRAL UNIVERSITY, priority 2011, published 2013).

Tested on: Nanog promoter, Sox2 promoter, Lin28 promoter, Oct4 promoter
Test: Luciferase assay in the screening device (cells stably carrying pStable promoter-Luc reporter plasmids)
Assay type: cell-based, mouse
Conditions: 2 mM VPA, reacted with cells for 24 hours, "24 hr cell"; C2C12 / P19 stable clones
Procedure: The screening is performed after the cells that express various promoters stably being prepared. […] The reporter plasmids whose backbone is constructed by the method mentioned above are transinfected individually into different dishes of host cells. After the reporter plasmids have been introduced into C2C12 or P19 cells, use G418 (Geneticin), a selective antibiotic for Neomycin resistance gene, to screen positive clones because pStable clones carry Neomycin resistance gene. After cell culture, transinfection, stable clone selection, and cells growing as colonies, stable clones in which various different promoters are expressed are obtained. In an embodiment of the present invention, pStable-Nanog-p-Luc plasmid, pStable-Sox2-p-Luc plasmid, pStable-Lin28-p-Luc plasmid and pStable-Oct4-p-Luc plasmid are introduced into both a C2C12 cell line and a P19 cell line. […] The C2C12 cell and P19 cell are cultured in an incubator under normal growth conditions (typically at 37° C., 5% CO2, and saturated humidity). Culture conditions of C2C12 cells and P19 cells are listed in the following list one: After the transfection processes, perform stable clone selection. The transfected cells are cultured in a culture medium containing 800 ug/ml G418. […] In an embodiment of the present invention, harvest cells after cells being reacted with 2 mM VPA for 24 hours and measure luminescence expression of cells. […]

In the case of CCCC(CCC)C(=O)O [VPA, valporic acid], the “level of Luciferase (luminescence expression)” value is reported as “higher level of Luciferase”.
